# Laboratory results: patent US9663464B2, “Carbazole derivatives acting on 5-HT7 receptor” (KOREA INSTITUTE OF SCIENCE AND TECHNOLOGY, priority 2015, dated 2017)
# Structures can show the parent of a compound that is named as a salt.
# Columns and labels:
# [1] = biological target: T1, human gene recombinant 5-HT7 receptor expressed in CHO cells (Homo sapiens, UniProt P34969); assay: Binding affinity for the 5-HT7 serotonin receptor ([3H]LSD radioligand)
# T1 construct: expressed in transfected cells; host or cells: CHO cells (membrane preparation)
# T1 sequence (P34969 whole entry): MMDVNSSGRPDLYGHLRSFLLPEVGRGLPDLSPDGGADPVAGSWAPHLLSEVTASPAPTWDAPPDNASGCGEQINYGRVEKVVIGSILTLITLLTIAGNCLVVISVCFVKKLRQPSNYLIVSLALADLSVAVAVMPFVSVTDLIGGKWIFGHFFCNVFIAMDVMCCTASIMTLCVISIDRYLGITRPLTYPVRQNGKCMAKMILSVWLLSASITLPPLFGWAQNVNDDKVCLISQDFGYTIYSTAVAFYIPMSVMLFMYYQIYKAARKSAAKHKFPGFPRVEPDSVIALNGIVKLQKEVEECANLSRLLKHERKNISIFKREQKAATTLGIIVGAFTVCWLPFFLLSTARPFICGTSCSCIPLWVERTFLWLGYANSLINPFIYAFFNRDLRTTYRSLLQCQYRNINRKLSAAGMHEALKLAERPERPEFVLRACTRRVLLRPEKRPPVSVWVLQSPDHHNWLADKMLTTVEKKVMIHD
# Description: In this example, the human gene recombinant 5-HT7 receptor expressed in CHO cells was used. 1 nM [^3H]LSD, 5-HT7 receptor membrane (15 μg/well), a test drug, 10 mM MgCl2, 50 mM Tris-HCl buffer (pH 7.4) containing 0.1 mM EDTA, etc. were added to a vessel until the final volume reached 0.25 ml. The test drug was used at various concentrations. The mixture was cultured at 25° C. for 90 min. The culture was rapidly filtered through a Whatman GF/C glass fiber filter, which had been previously wetted with 0.3% polyethyleneimine using a Brandel harvester, to quench the reaction. The reaction mixture was washed with cold 50 mM Tris-HCl buffer. The filter was covered with MeltiLex, sealed in a sample bag, and dried in an oven. Counting was performed using MicroBeta (Wallac) and nonspecific binding was measured in the presence of […]. The K value of the test drug was obtained from nonlinear regression analysis (GraphPad Prism Program, San Diego, USA) of isotherms obtained by repeatedly performing the experiment on the drug at 10-11 stage concentrations in two test tubes (each twice).
# The % inhibition values of the inventive compounds having different Y structures at a concentration of 10 μM against the 5-HT7 serotonin receptor were measured. Further, the binding affinity (Ki) values of the inventive compounds having different Y structures at a concentration of 10 μM for the 5-HT7 serotonin receptor were measured.
# 5-HT1E = 5-HT1E (Homo sapiens, UniProt P28566); assay: 5-HT1E receptor inhibition (Table 1); assay type: binding
# Chain of 5-HT1E (P28566 whole entry, species assumed): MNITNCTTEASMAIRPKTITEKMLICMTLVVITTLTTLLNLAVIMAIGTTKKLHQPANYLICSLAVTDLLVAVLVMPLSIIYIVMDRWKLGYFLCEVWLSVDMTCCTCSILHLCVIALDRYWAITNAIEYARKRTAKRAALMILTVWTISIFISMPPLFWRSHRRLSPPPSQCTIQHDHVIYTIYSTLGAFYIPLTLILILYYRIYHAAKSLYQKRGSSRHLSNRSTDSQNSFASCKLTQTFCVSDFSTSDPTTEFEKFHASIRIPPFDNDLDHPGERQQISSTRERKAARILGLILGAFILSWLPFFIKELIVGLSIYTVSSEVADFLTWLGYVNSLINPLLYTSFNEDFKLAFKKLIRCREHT
# 5-HT2C = biological target: T2, 5-HT2C (Homo sapiens, UniProt P28335); assay: 5-HT2C receptor inhibition/binding (Tables 1-3)
# T2 sequence (P28335 33-458): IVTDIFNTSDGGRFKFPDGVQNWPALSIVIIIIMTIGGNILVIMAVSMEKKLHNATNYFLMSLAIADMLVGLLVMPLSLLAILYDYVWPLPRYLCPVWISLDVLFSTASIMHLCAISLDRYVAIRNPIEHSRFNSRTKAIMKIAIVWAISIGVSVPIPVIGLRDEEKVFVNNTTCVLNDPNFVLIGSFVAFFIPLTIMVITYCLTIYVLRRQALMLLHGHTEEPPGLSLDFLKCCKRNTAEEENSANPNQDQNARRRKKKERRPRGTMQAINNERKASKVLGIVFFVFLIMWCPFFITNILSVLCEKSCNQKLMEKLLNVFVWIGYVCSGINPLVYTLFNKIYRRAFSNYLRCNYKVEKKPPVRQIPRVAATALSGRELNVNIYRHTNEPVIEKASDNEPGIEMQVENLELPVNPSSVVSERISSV
# Rats = assay: Antagonism against migraine: leakage of fluorescent protein (FITC-BSA) from meningeal vessels; assay type: in vivo; conditions: for protein leakage vs reference value: 5 mg/kg to 20 mg/kg
# Description: It is known that inflammatory proteins leaked from meningeal vessels by 5-HT are implicated in causing migraine. The amount of the proteins leaked in the presence of the compound of Example 2.10 was measured and the preventive effect of the compound on migraine was assessed by a partial modification of the method described in the literature [Rachel A. Spokes, Vicki C. Middlefell, European Journal of Pharmacology (1995) 281, 75-79]. SB-269970, which is known as a 5-HT7 receptor antagonizing compound (J. Med. Chem. (2000) 43, 342-345), was used as a comparative compound. A negative control free of […] was prepared. The fluorescence intensity of the negative control was defined as a reference value. As a positive control, physiological saline was added instead of the compound of Example 2-10.
# Rats (350-450 g) were administered urethane (1.5 g/kg) intraperitoneally. 50 mg/kg of a fluorescent protein (FITC-BSA) was administered intravenously through a cannula introduced into the saphenous vein, and 1 μM […] was administered intravenously. SB-269970 and the compound of Example 2.10 were administered intraperitoneally. The cerebral lobes were separated and the meninges were drawn from each rat. The meninges were allowed to stand at 37° C. for 16 h in the presence of physiological saline at pH 11, followed by centrifugation. The supernatant was plated on plates. The fluorescence intensity was measured using a fluorescence leader (excitation wavelength 485 nm, […] wavelength 530 nm) and the meninges were weighed. The fluorescence intensity per mg of the meningeal proteins was calculated.
# 5-HT6 = 5-HT6 (Homo sapiens, UniProt P50406); assay: 5-HT6 receptor inhibition/binding (Tables 2-3)
# Chain of 5-HT6 (P50406 whole entry, species assumed): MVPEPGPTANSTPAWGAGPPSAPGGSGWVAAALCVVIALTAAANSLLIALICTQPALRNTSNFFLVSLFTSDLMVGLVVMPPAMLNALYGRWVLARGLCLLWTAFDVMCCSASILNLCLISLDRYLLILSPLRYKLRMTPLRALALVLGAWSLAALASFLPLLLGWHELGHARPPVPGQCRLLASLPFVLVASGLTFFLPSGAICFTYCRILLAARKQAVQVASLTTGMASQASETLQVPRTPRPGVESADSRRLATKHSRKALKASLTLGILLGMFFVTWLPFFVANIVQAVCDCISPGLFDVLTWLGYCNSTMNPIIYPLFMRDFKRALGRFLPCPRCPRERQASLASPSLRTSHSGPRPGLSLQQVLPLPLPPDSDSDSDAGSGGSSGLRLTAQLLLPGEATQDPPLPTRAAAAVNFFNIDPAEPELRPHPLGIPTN
# 5-HT1A = biological target: T3, 5-HT1A (Homo sapiens, UniProt P08908); assay: 5-HT1A receptor inhibition (Table 3); assay type: binding
# T3 sequence (P08908 1-422): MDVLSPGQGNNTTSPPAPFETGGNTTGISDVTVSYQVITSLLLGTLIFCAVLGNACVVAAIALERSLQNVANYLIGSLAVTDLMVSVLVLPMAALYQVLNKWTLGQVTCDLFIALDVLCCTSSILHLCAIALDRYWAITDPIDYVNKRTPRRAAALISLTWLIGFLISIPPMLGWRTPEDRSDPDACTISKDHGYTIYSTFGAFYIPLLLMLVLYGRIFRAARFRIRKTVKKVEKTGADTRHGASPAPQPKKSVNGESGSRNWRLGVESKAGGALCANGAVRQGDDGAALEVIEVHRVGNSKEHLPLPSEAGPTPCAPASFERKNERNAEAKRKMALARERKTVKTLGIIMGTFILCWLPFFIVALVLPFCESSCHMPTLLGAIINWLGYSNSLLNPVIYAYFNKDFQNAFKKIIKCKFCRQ
Compound,inhibition at 10 µM [1] [%],inhibition at 10 µM (5-HT1E) [%],Ki (5-HT2C) [µM],inhibition at 10 µM (5-HT2C) [%],protein leakage vs reference value (Rats),Ki [1] [µM],Ki (5-HT6) [µM],inhibition at 10 µM (5-HT6) [%],"amount of the proteins leaked (meningeal fluorescence intensity) vs reference value (Rats; intraperitoneal, 3 mg/kg)",inhibition at 10 µM (5-HT1A) [%],"amount of the proteins leaked (meningeal fluorescence intensity) (Rats; intraperitoneal, 10 mg/kg)","amount of the proteins leaked (meningeal fluorescence intensity) vs reference value (Rats; intraperitoneal, 30 mg/kg)"
"CC1CCN(CCCCCC(=O)n2c3ccccc3c3ccccc32)CC1 [Example 2.4, 1-(9H-carbazol-9-yl)-6-(4-methylpiperidin-1-yl)hexan-1-one]",94.2,-11.6,0.878,78.5,suppressed to a level close to the reference value,–,–,–,–,–,–,–
"O=C(CCCCCN1CCC(c2ccccc2)CC1)n1c2ccccc2c2ccccc21 [Example 2.9, 1-(9H-carbazol-9-yl)-6-(4-phenylpiperidin-1-yl)hexan-1-one hydrochloride]",99.8,–,0.758,55.3,suppressed to a level close to the reference value,0.157,0.373,92.2,–,–,–,–
"O=C(CCCCCN1CCC(Cc2ccccc2)CC1)n1c2ccccc2c2ccccc21 [Example 2.10, 6-(4-Benzylpiperidin-1-yl)-1-(9H-carbazol-9-yl)hexan-1-one hydrochloride]",103,–,0.683,70.4,–,0.252,0.354,91.9,effectively suppressed to a level close to the reference value,–,–,–
"O=C(CCCCCN1CCN(c2noc3ccccc23)CC1)n1c2ccccc2c2ccccc21 [Example 2.14, 6-(4-Benzo[d]isoxazol-3-yl)piperazin-1-yl)-1-(9H-carbazol-9-yl)hexan-1-one hydrochloride]",94.1,–,–,63.7,suppressed to a level close to the reference value,0.073,–,81.3,–,80.5,–,–
"O=C(CCCCCN1CCN(c2ccccc2O)CC1)n1c2ccccc2c2ccccc21 [Example 2.15, 1-(9H-carbazol-9-yl)-6-(4-(2-hydroxyphenyl)piperazin-1-yl)hexan-1-one]",100,–,–,73.5,suppressed to a level close to the reference value,0.038,–,85.3,–,94.2,–,–
"COc1ccccc1N1CCN(CCCCC(=O)n2c3ccccc3c3ccccc32)CC1 [Example 2.31, 1-(9H-carbazol-9-yl)-5-(4-(2-methoxyphenyl)piperazin-1-yl)pentan-1-one hydrochloride]",99.6,–,–,62.6,suppressed to a level close to the reference value,0.03,–,44.4,–,103,–,–
"CCCCN(C)CCCCCCn1c2ccccc2c2ccccc21 [Example 2.35, N-Butyl-6-(9H-carbazol-9-yl)-N-methylhexane-1-amine]",70.7,55.7,–,59.4,–,0.511,–,–,–,–,–,–
"Oc1ccccc1N1CCN(CCCCn2c3ccccc3c3ccccc32)CC1 [Example 2.55, 2-(4-(4-(9H-carbazol-9-yl)butyl)piperazin-1-yl)phenol]",95.8,–,–,–,suppressed to a level close to the reference value,0.055,–,77.8,–,103,–,–
"CC1CCN(CC[C@H]2CCCN2S(=O)(=O)c2cccc(O)c2)CC1 [SB-269970, reference compound]",–,–,–,–,–,–,–,–,–,–,reduced the amount of the proteins leaked,not lowered down to the reference value
